{"source": "patent US11559585B2", "about": "“Conjugates of active pharmaceutical ingredients” (priority 2017, dated 2023)", "key": {"A549 cells": {"test_system": "A549 cells", "experiment": "Cytotoxicity assay (MTS) with or without light", "type": "cell-based, human", "conditions": "upon light treatment (630 nm, 3 min)", "procedure": "Cytotoxicity assay. Cell viabilities were determined by MTS method according to manufactory manual (Promega, Madison, Wis.). A549 cells were seeded in 96-wells plates with a density of 5000 cells per well. […] Six hours later, medium was replaced with fresh complete media followed by illumination with 630 nm light for 3 minutes. After additional 24 hours incubation, MTS working solution was added and the absorbance at 490 nm was evaluated by SpectraMax M3 microplate reader. Experiments were performed in triplicate, and 3 independent experiments were conducted."}, "U87-MG tumour cells": {"test_system": "U87-MG tumour cells", "experiment": "Cell viability (MTS) with or without laser", "type": "cell-based", "procedure": "Cell viabilities evaluation. U87-MG cells were purchased from the American Type Culture Collection (ATCC, Manassas, Va., USA). Cells were cultured in RPMI 1640 Medium supplemented with 10% fetal bovine serum, 100 U/mL penicillin G, and […] streptomycin in a humidified 37° C. with 5% CO2. Cell viabilities were determined by MTS method. U87-MG cells were seeded in 96-well plates with a density of 5000 cells per well. The cells were incubated overnight until fully attached. The cells were treated with different concentrations of Pa, Ir, Pa and Ir mixture and PIN. 12 h later, the extracellular materials were washed off with PBS and replaced with fresh culture media. Laser treated group were exposed under a laser source of Omnilux New-U device (630 nm) for 3 min, and further incubated with non-laser treated cells for another 24 h. MTS was added to each well and further incubated for 2 h. The UV-vis absorbance at 495 nm with a reference wavelength of 630 nm was detected using a micro-plate reader using an SpectraMax M3 Multi-Mode Microplate Readers (Molecular Devices, LLC., CA, USA). Untreated cells in medium were used as controls. […]. Results were shown as the average cell viability [(ODtreat−ODblank)/(ODcontrol−ODblank)*100%] of triplicate wells."}, "OSC-3 cells": {"test_system": "OSC-3 cells", "experiment": "Cell viability with or without laser", "method": "The synergistic effect of the chemotherapy and phototherapy of pPhD NPs was evaluated. OSC-3 cells were incubated with different concentrations of free photosensitizer (Phy), free chemotherapeutic drug (DOX) and pPhD NPs, respectively, then treated with or without laser (FIG. 11i)."}, "[1]": {"test_system": "A549 human lung cancer cells", "experiment": "Cell uptake and intracellular ROS production", "type": "cell-based", "conditions": "upon laser/light illumination", "procedure": "Cell uptake and intracellular ROS production. […] After three times of washes with PBS, cells were incubated with 50 μM DCF-DA for 30 minutes. Samples were treated with or without light (630 nm, Omnilux New-U LED panel) for 1 minute, and intracellular […] (based on Pa fluorescence) and ROS production were analyzed by flow cytometry ([…], BD Bioscience, SD, CA)."}, "[2]": {"experiment": "Systemic toxicity of pPhD NPs (body weight, H&E)", "type": "in vivo", "procedure": "Tumor volume and body weight measurements. The body weights and tumor sizes were monitored three times a week, and the tumor volume was calculated by the following formula: Tumor volume=Length×(Width/2)^2.\nH&E evaluation. All laser-treated tumors were collected and stained with hematoxylin and eosin (H&E) to evaluate the effect of phototherapy. The main organs of each group, including heart, liver, spleen, lung, kidney, small intestine, were collected for H&E assay to evaluate the toxicity of the materials."}}}
{"compound": "pheophorbide A [Pa]", "values": [{"measurement": "IC50", "setting": "A549 cells", "value": 7, "unit": "µM"}, {"measurement": "IC50", "setting": "U87-MG tumour cells; with laser treatment (630 nm, 3 min)", "value": "~50", "unit": "µM"}, {"measurement": "cytotoxicity", "setting": "U87-MG tumour cells; without laser", "value": "no obvious cytotoxicity"}]}
{"compound": "pheophorbide a-hydrazide [Phy]", "values": [{"measurement": "cytotoxicity", "setting": "OSC-3 cells", "value": "no obvious cytotoxicity"}]}
{"compound": "CCc1c2c(nc3ccc(OC(=O)N4CCC(N5CCCCC5)CC4)cc13)-c1cc3c(c(=O)n1C2)COC(=O)[C@]3(O)CC", "note": "[Ir, irinotecan]", "values": [{"measurement": "intracellular ROS production", "setting": "[1]", "value": "did not produce intracellular ROS"}]}
{"compound": "COc1cccc2c1C(=O)c1c(O)c3c(c(O)c1C2=O)C[C@@](O)(C(=O)CO)C[C@@H]3O[C@H]1C[C@H](N)[C@H](O)[C@H](C)O1", "note": "[DOX, doxorubicin]", "values": [{"measurement": "cytotoxicity", "setting": "OSC-3 cells", "value": "notable anti-tumor efficacy"}, {"measurement": "body weight changes / systemic toxicity", "setting": "[2]; during treatment", "value": "obvious body weights loss"}, {"measurement": "lesion of major organs (H&E)", "setting": "[2]; mouse, in vivo", "value": "obvious liver and heart toxicity"}]}
